Assay in all cases: Z-lyte biochemical IC50 assay (Invitrogen)
Conditions in all cases: ATP concentration matched the Km

In experiment [1] the target is STK24 (MST3) (Homo sapiens (Human), UniProt Q9Y6E0). The method, then:
(§1) STK4 (MST1), STK3 (MST2); STK24 (MST3) and MST4 Assays
(§2) Biochemical IC50s were measured at Invitrogen using Z-lyte technology. Briefly, for STK4, the 2×STK4 (MST1)/Ser/Thr 07 mixture was prepared in 50 mM HEPES pH 7.5, 0.01% BRIJ35, 10 mM MgCl2, 1 mM EGTA. The final 10 μL Kinase Reaction consisted of 6.25-160 ng STK4 (MST1) and 2 μM Ser/Thr 07 in 50 mM HEPES pH 7.5, 0.01% BRIJ-35, 10 mM MgCl2, 1 mM EGTA. After the 1 hour Kinase Reaction incubation, 5 μL of a 1:100000 dilution of Development Reagent A was added. Compounds were screened in a 10 point titration with 3-fold serial dilutions starting at a concentration of 10 μM. The biochemical IC50s against other STK family members were measured similarly. The ATP concentration used matched the Km for each kinase.

Experiment [2] concerns the target STK4 (MST1) (Homo sapiens (Human), UniProt Q13043). The method, then:
as §1, §2

In experiment [3] the target is STK3 (MST2) (Homo sapiens (Human), UniProt Q13188). The protocol: as §1, §2
Sequence of STK3 (MST2) (Q13188 whole entry): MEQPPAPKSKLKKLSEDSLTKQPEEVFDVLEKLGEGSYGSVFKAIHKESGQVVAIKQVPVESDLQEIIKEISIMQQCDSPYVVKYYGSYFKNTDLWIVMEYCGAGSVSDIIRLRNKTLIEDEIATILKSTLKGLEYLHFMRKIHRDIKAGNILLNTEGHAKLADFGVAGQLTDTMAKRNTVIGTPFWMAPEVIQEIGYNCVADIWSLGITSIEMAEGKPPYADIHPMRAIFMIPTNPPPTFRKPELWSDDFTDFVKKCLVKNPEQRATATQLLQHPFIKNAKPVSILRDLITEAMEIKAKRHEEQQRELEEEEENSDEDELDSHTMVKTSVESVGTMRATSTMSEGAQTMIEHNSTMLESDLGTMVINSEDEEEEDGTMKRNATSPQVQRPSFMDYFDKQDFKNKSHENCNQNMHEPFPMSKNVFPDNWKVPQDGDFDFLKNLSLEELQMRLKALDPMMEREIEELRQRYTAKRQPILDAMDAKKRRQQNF

pIC50: −log10 of the molar value. “And” between values parts separate entries of the source, which are not always exact repeats. Equal values may be shown once. A value given as a limit tells only on which side of the number the result lay.

Consider 30 molecules from patent US10710978B2, “STK4 inhibitors for treatment of hematologic malignancies” (Dana-Farber Cancer Institute, Inc., priority 2015, dated 2020).

Broadly, the pIC50 is the negative decadic logarithm of the IC50, by convention in mol/L. Higher therefore signals a small IC50.

Sequence of STK24 (MST3) (Q9Y6E0 whole entry): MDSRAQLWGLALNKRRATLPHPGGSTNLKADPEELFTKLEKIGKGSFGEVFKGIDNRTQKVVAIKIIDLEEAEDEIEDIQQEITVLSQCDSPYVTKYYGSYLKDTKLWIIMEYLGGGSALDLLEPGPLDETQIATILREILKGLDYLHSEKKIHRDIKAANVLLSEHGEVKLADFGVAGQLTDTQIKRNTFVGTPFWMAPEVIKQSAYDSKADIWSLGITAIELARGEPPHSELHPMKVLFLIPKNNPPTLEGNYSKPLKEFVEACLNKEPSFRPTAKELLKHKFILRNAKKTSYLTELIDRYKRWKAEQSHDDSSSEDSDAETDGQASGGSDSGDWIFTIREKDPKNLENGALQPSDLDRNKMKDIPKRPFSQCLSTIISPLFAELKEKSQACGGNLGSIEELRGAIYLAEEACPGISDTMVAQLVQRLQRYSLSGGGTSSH
Sequence of STK4 (MST1) (Q13043 whole entry): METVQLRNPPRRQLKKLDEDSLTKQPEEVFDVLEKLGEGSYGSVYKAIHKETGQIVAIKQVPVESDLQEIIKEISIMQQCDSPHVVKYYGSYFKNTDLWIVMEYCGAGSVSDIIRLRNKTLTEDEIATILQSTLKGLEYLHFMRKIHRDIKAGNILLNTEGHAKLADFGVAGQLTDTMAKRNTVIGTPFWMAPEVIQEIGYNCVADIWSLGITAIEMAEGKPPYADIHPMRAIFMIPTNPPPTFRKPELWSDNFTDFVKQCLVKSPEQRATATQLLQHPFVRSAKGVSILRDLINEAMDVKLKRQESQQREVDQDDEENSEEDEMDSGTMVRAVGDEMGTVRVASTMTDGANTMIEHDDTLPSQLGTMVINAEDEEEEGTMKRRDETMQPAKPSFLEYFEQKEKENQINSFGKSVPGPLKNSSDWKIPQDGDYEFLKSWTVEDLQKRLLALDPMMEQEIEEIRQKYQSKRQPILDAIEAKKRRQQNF

On to `Nc1ncc(-c2cccc([N+](=O)[O-])c2)cc1-c1ccc2c(c1)CCNC2=O` [Compound I-2, 6-(2-amino-5-(3-nitrophenyl)pyridin-3-yl)-3,4-dihydroisoquinolin-1(2H)-one], for which the pIC50 in experiment [1] was below 6.05; in experiment [2], above 7.40.
In the same order, the values of `Nc1ncc(-c2ccccc2F)cc1-c1ccc2c(c1)CCNC2=O` [Compound I-3, 6-(2-amino-5-(2-fluorophenyl)pyridin-3-yl)-3,4-dihydroisoquinolin-1(2H)-one] are below 6.05 and 6.70 to 7.40.
For `Nc1ncc(-c2cc([N+](=O)[O-])ccc2Cl)cc1-c1ccc2c(c1)CCNC2=O` [Compound I-4, 6-(2-amino-5-(2-chloro-5-nitrophenyl)pyridin-3-yl)-3,4-dihydroisoquinolin-1(2H)-one], the pIC50 in experiment [1] and in experiment [2] was below 6.05 throughout.
`Nc1ncc(-c2cnccc2F)cc1-c1ccc2c(c1)CCNC2=O` [Compound I-5, 6-(6-amino-4′-fluoro-[3,3′-bipyridin]-5-yl)-3,4-dihydroisoquinolin-1(2H)-one]: the results for the pIC50 in experiment [1] and in experiment [2] were below 6.05 and 6.05 to 6.70, respectively.
The like results for `CCNC(=O)c1ccc(F)c(-c2cnc(N)c(-c3ccc4c(c3)CCNC4=O)c2)c1` [Compound I-6, 3-(6-amino-5-(1-oxo-1,2,3,4-tetrahydroisoquinolin-6-yl)pyridin-3-yl)-N-ethyl-4-fluorobenzamide] were, in that order, below 6.05 and below 6.05.
As for `COc1cc(S(=O)(=O)N(C)C2CCCCC2)ccc1-c1cnc(N)c(-c2ccc3c(c2)CCNC3=O)c1` [Compound I-52, 4-(6-amino-5-(1-oxo-1,2,3,4-tetrahydroisoquinolin-6-yl)pyridin-3-yl)-N-cyclohexyl-3-methoxy-N-methylbenzenesulfonamide], the pIC50 in experiment [2] was 6.70 to 7.40.
In turn, `COc1cc(S(=O)(=O)N(C)C2CCOCC2)ccc1-c1cnc(N)c(-c2ccc3c(c2)CCNC3=O)c1` [Compound I-53, 4-(6-amino-5-(1-oxo-1,2,3,4-tetrahydroisoquinolin-6-yl)pyridin-3-yl)-3-methoxy-N-methyl-N-(tetrahydro-2H-pyran-4-yl)benzenesulfonamide] had a pIC50 in experiment [2] of 6.70 to 7.40.
Still for that read-out and setting: then `Nc1ncc(-c2ccc([N+](=O)[O-])cc2F)cc1-c1ccc2c(c1)CCNC2=O` [Compound I-54, 6-(2-amino-5-(2-fluoro-4-nitrophenyl)pyridin-3-yl)-3,4-dihydroisoquinolin-1(2H)-one], with 6.70 to 7.40.
Same read-out and setting: then `Nc1ncc(-c2cccc3scnc23)cc1-c1ccc2c(c1)CCNC2=O` [Compound I-55, 6-(2-amino-5-(benzo[d]thiazol-4-yl)pyridin-3-yl)-3,4-dihydroisoquinolin-1(2H)-one], with 6.70 to 7.40; and `Nc1ncc(-c2cncc3ncsc23)cc1-c1ccc2c(c1)CCNC2=O` [Compound I-56, 6-(2-amino-5-(thiazolo[4,5-c]pyridin-7-yl)pyridin-3-yl)-3,4-dihydroisoquinolin-1(2H)-one], with 6.05 to 6.70.
On the same count and under the same terms, the figure for `Nc1ncc(-c2ccc(F)c3ncsc23)cc1-c1ccc2c(c1)CCNC2=O` [Compound I-57, 6-(2-amino-5-(4-fluorobenzo[d]thiazol-7-yl)pyridin-3-yl)-3,4-dihydroisoquinolin-1(2H)-one] is above 7.40; for `Nc1ncc(-c2cccc(NS(=O)(=O)C3CC3)c2)cc1-c1ccc2c(c1)CCNC2=O` [Compound I-58, N-(3-(6-amino-5-(1-oxo-1,2,3,4-tetrahydroisoquinolin-6-yl)pyridin-3-yl)phenyl) cyclopropanesulfonamide] it is above 7.40.
As to `Nc1ncc(-c2cccc(-c3nccs3)c2)cc1-c1ccc2c(c1)CCNC2=O` [Compound I-59, 6-(2-amino-5-(3-(thiazol-2-yl)phenyl)pyridin-3-yl)-3,4-dihydroisoquinolin-1(2H)-one], in experiment [2], the pIC50 is above 7.40.
The molecule `COc1cc(-c2nccs2)ccc1-c1cnc(N)c(-c2ccc3c(c2)CCNC3=O)c1` [Compound I-60, 6-(2-amino-5-(2-methoxy-4-(thiazol-2-yl)phenyl)pyridin-3-yl)-3,4-dihydroisoquinolin-1(2H)-one] showed a pIC50 in experiment [2] of 6.70 to 7.40.
Same read-out and setting: then `COc1cc(C#N)ccc1-c1cnc(N)c(-c2ccc3c(c2)CCNC3=O)c1` [Compound I-61, 4-(6-amino-5-(1-oxo-1,2,3,4-tetrahydroisoquinolin-6-yl)pyridin-3-yl)-3-methoxybenzonitrile], with above 7.40.
Molecule `CN1CCc2cc(-c3cc(-c4ccc(S(=O)(=O)N(C)C5CC5)cc4F)cnc3N)ccc2C1=O` [Compound I-62, 4-(6-amino-5-(2-methyl-1-oxo-1,2,3,4-tetrahydroisoquinolin-6-yl)pyridin-3-yl)-N-cyclopropyl-3-fluoro-N-methylbenzenesulfonamide] gave a pIC50 in experiment [2] above 7.40.
The molecule `CN(C1CC1)S(=O)(=O)c1ccc(-c2cnc(N)c(-c3ccc4c(=O)[nH]cnc4c3)c2)c(F)c1` [Compound I-63, 4-(6-amino-5-(4-oxo-3,4-dihydroquinazolin-7-yl)pyridin-3-yl)-N-cyclopropyl-3-fluoro-N-methylbenzenesulfonamide] showed a pIC50 in experiment [2] above 7.40.
As to `Nc1ncc(-c2cccc3ncsc23)cc1-c1ccc2c(=O)[nH]cnc2c1` [Compound I-64, 7-(2-amino-5-(benzo[d]thiazol-7-yl)pyridin-3-yl)quinazolin-4(3H)-one], the pIC50 in experiment [2] is 6.70 to 7.40.
The same measure, in the same setting: then `Nc1ncc(-c2ccc(NS(=O)(=O)C3CC3)cc2OCc2ccccc2)cc1-c1ccc2c(c1)CCNC2=O` [Compound I-66, N-(4-(6-amino-5-(1-oxo-1,2,3,4-tetrahydroisoquinolin-6-yl)pyridin-3-yl)-3-(benzyloxy)phenyl) cyclopropanesulfonamide], with 6.70 to 7.40; and `CC(C)Oc1cc(NS(=O)(=O)C2CC2)ccc1-c1cnc(N)c(-c2ccc3c(c2)CCNC3=O)c1` [Compound I-67, N-(4-(6-amino-5-(1-oxo-1,2,3,4-tetrahydroisoquinolin-6-yl)pyridin-3-yl)-3-isopropoxyphenyl) cyclopropanesulfonamide], with above 7.40.
The same measure, in the same setting: the figure for `CC(C)Oc1cc(S(=O)(=O)N(C)C2CC2)ccc1-c1cnc(N)c(-c2ccc3c(c2)CNC3=O)c1` [Compound I-68, 4-(6-amino-5-(1-oxoisoindolin-5-yl)pyridin-3-yl)-N-cyclopropyl-3-isopropoxy-N-methylbenzenesulfonamide] is above 7.40; for `Nc1ncc(-c2ccc(NS(=O)(=O)C3CC3)cc2OC2CCCC2)cc1-c1ccc2c(c1)CCNC2=O` [Compound I-69, N-(4-(6-amino-5-(1-oxo-1,2,3,4-tetrahydroisoquinolin-6-yl)pyridin-3-yl)-3-(cyclopentyloxy)phenyl) cyclopropanesulfonamide] it is above 7.40; for `Nc1ncc(-c2ccc(F)c3ncsc23)cc1-c1ccc2c(c1)CNC2=O` [Compound I-70, 5-(2-amino-5-(4-fluorobenzo[d]thiazol-7-yl)pyridin-3-yI)isoindolin-1-one] it is 6.70 to 7.40.
Still for that read-out and setting: the figure for `Nc1ncc(-c2cccc(S(N)(=O)=O)c2)cc1-c1ccc2c(c1)CCNC2=O` [Compound I-71, 3-(6-amino-5-(1-oxo-1,2,3,4-tetrahydroisoquinolin-6-yl)pyridin-3-yl)benzenesulfonamide] is 6.05 to 6.70.
Turning to `COc1cc(S(=O)(=O)N(C)C2CC2)ccc1-c1cnc(N)c(-c2ccc3c(c2)CCNC3=O)c1` [Compound I-72, 4-(6-amino-5-(1-oxo-1,2,3,4-tetrahydroisoquinolin-6-yl)pyridin-3-yl)-N-cyclopropyl-3-methoxy-N-methylbenzenesulfonamide], the pIC50 in experiment [1] is 6.70 to 7.40; in experiment [3] it was above 7.40; in experiment [2], above 7.40.
For the molecule `Nc1ncc(-c2cc3scnc3cc2F)cc1-c1ccc2c(c1)CCNC2=O` [Compound I-73, 6-(2-amino-5-(5-fluorobenzo[d]thiazol-6-yl)pyridin-3-yl)-3,4-dihydroisoquinolin-1(2H)-one], the pIC50 in experiment [2] is 6.70 to 7.40.
As for `CN(C1CC1)S(=O)(=O)c1ccc(-c2cnc(N)c(-c3ccc4c(c3)CNC4=O)c2)c(F)c1` [Compound I-74, 4-(6-amino-5-(1-oxoisoindolin-5-yl)pyridin-3-yl)-N-cyclopropyl-3-fluoro-N-methylbenzenesulfonamide], the pIC50 in experiment [1] is below 6.05; in experiment [3] it was above 7.40; in experiment [2] it was > 7.40 and 6.70 to 7.40.
In the case of `N#Cc1cccc(-c2cnc(N)c(-c3ccc4c(c3)CCNC4=O)c2)c1` [Compound I-75, 3-(6-amino-5-(1-oxo-1,2,3,4-tetrahydroisoquinolin-6-yl)pyridin-3-yl)benzonitrile], the pIC50 in experiment [1] is 6.05 to 6.70; in experiment [3], 6.70 to 7.40; in experiment [2], 6.70 to 7.40.
Take `Nc1ncc(-c2scnc2Cl)cc1-c1ccc2c(c1)CCNC2=O` [Compound I-76, 6-(2-amino-5-(4-chlorothiazol-5-yl)pyridin-3-yl)-3,4-dihydroisoquinolin-1(2H)-one]: the pIC50 in experiment [1] was below 6.05; in experiment [3], 6.70 to 7.40; in experiment [2] it was > 7.40 and 6.70 to 7.40.
For `Nc1ncc(-c2scnc2Cl)cc1-c1ccc2c(c1)CCNC2=O` [Compound I-77, 6-(2-amino-5-(4-chlorothiazol-5-yl)pyridin-3-yl)-3,4-dihydroisoquinolin-1(2H)-one], the pIC50 in experiment [2] is 6.70 to 7.40.
